Laboratory results as given in ChEMBL document CHEMBL4359866, “A computer-assisted discovery of novel potential anti-obesity compounds as selective carbonic anhydrase VA inhibitors” (Eur J Med Chem, 2019).

Assays:
[1] = molecular target: Carbonic anhydrase 1 (Homo sapiens, UniProt P00915); assay: Inhibition of recombinant human carbonic anhydrase 1 preincubated with enzyme for 15 mins by phenol red dye based stopped flow CO2 hydration assay
[2] = molecular target: Carbonic anhydrase 2 (Homo sapiens, UniProt P00918); assay: Inhibition of recombinant human carbonic anhydrase 2 preincubated with enzyme for 15 mins by phenol red dye based stopped flow CO2 hydration assay
[3] = molecular target: Carbonic anhydrase 5A, mitochondrial (Homo sapiens, UniProt P35218); assay: Inhibition of recombinant human carbonic anhydrase VA preincubated with enzyme for 15 mins by phenol red dye based stopped flow CO2 hydration assay
Chain of Carbonic anhydrase 5A, mitochondrial (P35218 whole entry): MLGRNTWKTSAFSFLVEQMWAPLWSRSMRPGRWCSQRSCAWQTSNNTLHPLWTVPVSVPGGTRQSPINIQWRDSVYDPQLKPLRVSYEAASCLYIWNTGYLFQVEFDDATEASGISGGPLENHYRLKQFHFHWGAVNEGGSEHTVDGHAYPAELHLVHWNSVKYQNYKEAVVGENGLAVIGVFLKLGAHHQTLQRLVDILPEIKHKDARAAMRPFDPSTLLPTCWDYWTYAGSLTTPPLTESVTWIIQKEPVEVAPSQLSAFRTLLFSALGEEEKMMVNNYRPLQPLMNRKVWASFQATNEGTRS

Chain of Carbonic anhydrase 1 (P00915 whole entry): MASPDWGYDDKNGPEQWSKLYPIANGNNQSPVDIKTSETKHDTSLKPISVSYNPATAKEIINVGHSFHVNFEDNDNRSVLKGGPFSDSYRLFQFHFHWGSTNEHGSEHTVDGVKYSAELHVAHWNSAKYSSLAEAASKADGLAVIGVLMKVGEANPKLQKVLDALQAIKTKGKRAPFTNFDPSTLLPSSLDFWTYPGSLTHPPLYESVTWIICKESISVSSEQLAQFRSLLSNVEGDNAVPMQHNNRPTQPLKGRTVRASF

| SMILES | Ki [1] [µM] | Ki [2] [µM] | Ki [3] [µM] |
| --- | --- | --- | --- |
| O=C(Cc1nnc(O)nc1O)N/N=C/c1c(O)ccc2ccccc12 | > 10 | > 10 | 8.71 |
| O=C(COc1ccc2c3c(c(=O)oc2c1)CCC3)c1ccc(Cl)cc1 | > 10 | > 10 | > 10 |
| O=C(CCNc1n[nH]c(=O)[nH]c1=O)N/N=C\c1c(F)cccc1Cl | > 10 | > 10 |  |
| O=C(CSc1ccncc1)N[C@@H]1C(=O)N2C(C(=O)O)=C(CO)CS[C@H]12 | > 10 | > 10 |  |
| Nc1nc(=O)c2nc(CNc3ccc(C(=O)N[C@H](CCC(=O)O)C(=O)O)cc3)cnc2[nH]1 | > 10 | > 10 | 9.75 |
| COc1cc(CC(=O)O)ccc1OS(=O)(=O)O | > 10 | > 10 |  |
| O=c1[nH]nc(SCc2ccc(Cl)cc2Cl)c(=O)[nH]1 | > 10 | > 10 |  |
| Nc1ccc2c(n1)[nH]c1ccccc12 | > 10 | > 10 |  |
| CC(=O)c1cc(O)cc(O)c1 | > 10 | > 10 |  |
| Nc1nc(F)nc2c1ncn2[C@@H]1O[C@H](COP(=O)(O)O)[C@@H](O)[C@@H]1O [FLUDARABINE PHOSPHATE] | > 10 | > 10 | 0.131 |
| COc1cc2nccc(Oc3ccc(NC(=O)NC4CC4)c(Cl)c3)c2cc1C(N)=O [LENVATINIB] | > 10 | > 10 | 0.133 |
| NC(=O)c1cn(Cc2c(F)cccc2F)nn1 [RUFINAMIDE] | > 10 | > 10 | 0.344 |
